Source: US11415571B2, “Large scale organoid analysis” (Tempus Labs, Inc., priority 2019, dated 2022)

Legend:
Assay in all cases: caspase 3/7 apoptosis assay, olaparib dilution series on tumor organoids
Format in all cases: cell-based, human
Settings in all cases: tumor without BRCA1 or BRCA2 mutation
[1] = tested on: tumor organoid culture line 10423-12001
Protocol: (§1) Tumor biopsies were collected from four individuals: UK1393, 10423-12001, 10524-12001, and 10941-12002. The tumors were genotyped and determined not carry BRCA1 or BRCA2 mutations. As such, according to conventional guidance, the tumors are not indicated for first-line therapy with a PARP inhibitor. In order to test whether these tumors may still be sensitive to PARP inhibitors, despite not carrying a BRCA1 or BRCA2 mutation, tumor organoids were cultured using cells from the biopsied material.
(§2) Briefly, cells within each of the biopsied tumor samples were dissociated and cultured to establish a tumor organoid culture line from the tumor of each individual. Single tumor organoids from the tumor organoid culture lines were collected and plated, individually, into wells of a multiwell plate with culture medium. A series of six concentrations of olaparib, in a 5-fold serial dilution, were established for the tumor organoids derived from each individual, as well as negative controls. After incubation with olaparib, a caspase 3/7 apoptosis assay was performed in each well, to determine the sensitivity of each tumor organoid to the respective concentration of olaparib. Results of the […] dilution series experiments are plotted in FIG. 3.

[2] = tested on: tumor organoid culture line UK1393
Protocol: as §1, §2

[3] = tested on: tumor organoid culture line 10941-12002
Protocol: as §1, §2

[4] = tested on: tumor organoid culture line 10524-12001
Protocol: as §1, §2

For O=C(c1cc(Cc2n[nH]c(=O)c3ccccc23)ccc1F)N1CCN(C(=O)C2CC2)CC1 [Olaparib], the sensitivity to olaparib [1] was “fairly insensitive”, the “sensitivity to olaparib compared with the other tumor organoid culture lines” value [2] was “more than 100 fold” and the sensitivity to olaparib [3] was “fairly insensitive”. For the same compound, the sensitivity to olaparib [4] was “fairly insensitive”.
